Assays:
Assay type in all cases: physicochemical
[1] = Fluorescence life time in ethanol; conditions: for Fluorescence life time (τFl): for Pheo 16 the longer component of a double exponential decay; for Fluorescence life time (τFl), second decay component: double exponential decay
[2] = Singlet oxygen quantum yield (photoinduced singlet oxygen) in ethanol; conditions: for singlet oxygen quantum yield (ΦA): in ethanol, before light exposure
Source text: The quantum yield of the photoinduced singlet oxygen of Pheo (0.52) decreases to 0.05 for Pheo 16 (see Table 1).
(§1) They equal to the parameters of the free Pheo.

[3] = Fluorescence intensity in ethanol; conditions: versus fluorescence intensity of Pheo in ethanol
Source text: The fluorescence spectra of al samples show nearly the same shape. However, the fluorescence intensity of Pheo 16 in ethanol is 50 times smaller than the fluorescence intensity of Pheo in ethanol (see FIG. 2).

[4] = Release of Pheo from dendrimer complex by light exposure (MALDI); conditions: after 30 min light exposure with UV lamp (~1 kJ)
Source text: as §1
However, this process occurs only in the presence of oxygen. Presumably, the primary generated singlet oxygen caused the separation of the bonds between the dye molecules and the dendrimer.

## C=Cc1c(C)c2cc3nc(c4c5[nH]c(cc6nc(cc1[nH]2)C(C)=C6CC)c(C)c5C(=O)[C@@H]4C(=O)OC)[C@@H](CCC(=O)ON1C(=O)CCC1=O)[C@@H]3C [Pheo-succinimide ester, pheophorbide a-succinimide ester]
[1]
  Fluorescence life time (τFl): 6.1 ± 0.3 ns
[2]
  singlet oxygen quantum yield (ΦA): 0.55

## Pheophorbide a [reference compound]
[1]
  Fluorescence life time (τFl): 5.7 ± 0.2 ns
[1]; listed as Pheo
  Fluorescence life time (τFl): 5.7 ns
[2]
  singlet oxygen quantum yield (ΦA): 0.52

## Pheophorbide a-diaminobutane-polypropylene-imine Dendrimer 3.0 Complex [Pheo 16]
[1]; relation of amplitudes 2 to 1
  Fluorescence life time (τFl), second decay component: 0.5 ns
  fluorescence lifetime, first component of double exponential decay: 4.5 ns
[1]; relation of amplitudes 2 to 1, listed as Pheo-16-dendrimer complex
  Fluorescence life time (τFl), second decay component: 0.5 ± 0.3 ns
[1]
  Fluorescence life time (τFl): 4.9 ± 0.3 ns
[2]; after light exposure of a 3 ml sample with 40 J and 514 nm
  singlet oxygen quantum yield after light exposure: 0.47
[2]
  singlet oxygen quantum yield (ΦA): 0.05
[3]
  fluorescence intensity relative to Pheo: 50 times smaller
[4]
  release of Pheo on light exposure: release of Pheo
